Entries after “also recorded” stand apart in the source; their conditions may differ. Where two headings read alike, the source gives them in different places. Values belong to the molecule of their own block, whether it stands above or below them.
How the values were obtained:
[1] = tested on: quiescent fibroblasts (Balb/c 3T3); test: toxicity analysis for quiescent fibroblasts (culture in the absence of aFGF); type: cell-based; details: for toxicity for quiescent fibroblasts: within the concentration range tested / in which aFGF mitogenic activity is inhibited
aFGF [2] = molecular target: T1, aFGF (Homo sapiens, UniProt P05230); test: aFGF-induced mitogenesis inhibition test on fibroblasts in culture; type: cell-based; design: the aFGF of 139 amino acid residues; details: for aFGF-induced mitogenic activity inhibition (in words): 60 hours, MIHS 20 μg/mL, aFGF 0.32 ng/mL; for aFGF-induced mitogenic inhibitory activity compared between compounds (stereochemical guidelines): C-9 and C-17 vs. C-14 and C-18, C-10, C-11, C-13 vs. C-9, 2-NMS vs 1-NMS series
Target sequence in this assay (P05230 16-155 limits assumed): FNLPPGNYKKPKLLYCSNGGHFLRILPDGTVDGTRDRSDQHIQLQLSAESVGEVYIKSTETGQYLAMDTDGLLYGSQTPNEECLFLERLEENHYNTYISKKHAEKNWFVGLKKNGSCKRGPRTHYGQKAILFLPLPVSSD

[3] = tested on: quiescent fibroblasts (Balb/c 3T3); details: Lozano et al. (1998), cited from earlier work
aFGF [4] = molecular target: T1, aFGF; design: the aFGF of 139 amino acid residues; details: Lozano et al. (1998), cited from earlier work
Target sequence in this assay (P05230 16-155 limits assumed): as above

aFGF [5] = molecular target: T1, aFGF; test: angiogenesis inhibition test in mice (aFGF-soaked gelatin sponge implants); type: in vivo
Procedure: A standard angiogenesis test was performed with mice in order to evaluate the C-9 compound as an angiogenesis inhibitor.
(§1) Pathogen-free C57/BI/6 mice (Charles River, Spain) weighing 25±4 g were used. The animals were kept in plastic cages under controlled temperature and humidity conditions; they had water and food ad libitum and a schedule of 12 hours of daylight and darkness was maintained. The guidelines on animal welfare of the NIH and the European Union were followed meticulously.
(§2) 10 mm long sterile gelatin sponge cubes (Curaspon Dental, Clinimed Holding, Zwanenburg, Holland) were subcutaneously implanted in the backs of the mice after inducing intraperitoneal anesthesia [Cuevas, P. et al. (1999) Neurol. Res. 21, 191-194]. The animals were distributed into 2 groups: Group A (n=10): formed by animals in which sponges loaded with 200 μL of phosphate buffered saline (PBS) containing 29 μg/mL of heparin were implanted; and Group B (n=40): formed by animals in which sponges soaked with the same solution as that of Group A but containing 10 μg/mL of aFGF were implanted. The skin was sutured after implanting the sponge in the subcutaneous bursa. The mice in Group B were randomly divided into four groups (n=10) that received 0.008, 0.08, 0.8 and 8 mg/kg of compound C-9, respectively, by means of intraperitoneal injection of 200 μL of PBS 24 hours after surgical treatment [Pesenti, E. et al. (1992) Brit. J. Cancer 66, 367-372; Cuevas, P. et al. (1999) Neurol. Res. 21, 191-194]. All the procedures were performed under sterile conditions.
In order to evaluate angiogenesis, the mice were again anesthetized as previously described, and the sponges were surgically extracted, which were treated to perform histological studies by means of conventional methods [Cuevas, P. et al. (1999) Neurol. Res. 21, 191-194] 7 days after the implants. Neovascularization was quantified by means of a morphometric computer program connected to a microscope. The growth of new vessels inside the sponges was evaluated by means of the measurement of the surface area containing erythrocytes. Neovascularization was analyzed in 4 predetermined visual fields of 3 different sections at a magnification of 10. The statistical analyses were performed using Student's t-Test.
Target sequence in this assay (P05230 whole entry, species assumed): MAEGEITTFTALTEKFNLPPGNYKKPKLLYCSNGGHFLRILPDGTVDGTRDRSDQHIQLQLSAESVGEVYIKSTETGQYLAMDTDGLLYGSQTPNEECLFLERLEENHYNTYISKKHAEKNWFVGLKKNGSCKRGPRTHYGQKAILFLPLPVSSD

bFGF = bFGF (Homo sapiens, UniProt P09038); test: angiogenesis inhibition test in mice with aFGF substituted with bFGF; type: in vivo; details: data not shown
[6] = toxicity observations in the mouse angiogenesis test; type: in vivo; details: highest tested concentrations
Procedure: as §1
as §2, with “All the procedures were performed under sterile conditions.” left out

glioma C6 cells = test: angiogenesis and tumor growth inhibition, glioma C6 cells implanted in rabbit cornea; type: in vivo, Albino New Zealand rabbits
Procedure: Albino New Zealand rabbits (3±0.5 kg, male and female in equal numbers) were used and were implanted with 5 μL of a glioma C6 cell suspension [ATCC CCL-107] subepithelially injected into the cornea with a 10 μL Hamilton syringe using a surgical microscope. The injection is located at 2 mm from the limbal margin of the cornea. At the same time, an osmotic minipump was subcutaneously implanted in the neck region for the purpose of assuring continuous infusion of the compound to be tested (C-9) or of a saline solution (control). A catheter guided the solution to the sclera at a constant rate of 0.2 mg/h. It is thus calculated that a concentration of about 0.003 mg/mL of the compound to be tested or saline solution is maintained in the cornea. Treatment was maintained for 14 days. The corneas were eliminated at the end of each experiment and at fixed intervals after each treatment and processed for histological examination.

C6 glioma cells = test: angiogenesis and tumor growth inhibition, C6 glioma cells implanted in rat brain; type: in vivo, rats
Procedure: A test similar to the one described in Example 3.1 was performed with rats, implanting the C6 glioma cells in the caudal area of the brain and the osmotic micropump in the back of the rats. A catheter led the treatment solution that contained the C-9 compound or the saline solution to the area of the glioma implant. Coronal sections of the brain of the rats thus treated were obtained and compared with coronal sections of the brain of untreated rats. The analysis was done by means of NMR spectroscopy imaging.

Sequence of bFGF (P09038 143-288, species assumed): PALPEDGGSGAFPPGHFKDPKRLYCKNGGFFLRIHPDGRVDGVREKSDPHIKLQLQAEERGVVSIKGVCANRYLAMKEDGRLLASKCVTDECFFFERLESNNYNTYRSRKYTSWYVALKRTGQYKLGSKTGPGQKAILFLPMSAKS

- aFGF-induced mitogenic inhibitory activity compared between compounds (stereochemical guidelines) (aFGF [2]): significant reduction
Compound: O=C(CCCCC(=O)Nc1cccc2cc(S(=O)(=O)O)ccc12)Nc1cccc2cc(S(=O)(=O)[O-])ccc12.[Na+] [Compound C-13]
- mitogenesis inductor / tumorigenic effect on quiescent fibroblasts in the absence of aFGF [1]: high mitogenesis inductor activity
- aFGF-induced mitogenic activity inhibition (in words) (aFGF [2]; Balb/c 3T3 fibroblasts): effective aFGF-induced mitogenesis activity inhibitors

Compound: O=S(=O)(O)c1cccc2ccccc12 [Compound C-1, 1-naphthalenesulfonic acid]
- toxicity for quiescent fibroblasts [1]: certain toxic effect
- toxicity at concentrations at which aFGF mitogenic activity is inhibited (literature) ([3]; listed as 1-NMS): clear toxicity; also recorded: toxic
- aFGF-induced mitogenic activity inhibition (in words) (aFGF [2]; Balb/c 3T3 fibroblasts): aFGF-induced mitogenic activity inhibitors
- aFGF-induced mitogenic activity inhibition (literature) (aFGF [4]; listed as 1-NMS): better aFGF mitogenic activity inhibitors than NTS; also recorded: aFGF-induced mitogenic activity inhibitors; also recorded: more potent inhibitor than 1,3,6-NTS and 1,5-NDS

Compound: Nc1ccc2cc(S(=O)(=O)[O-])cc(O)c2c1.[Na+] [Compound C-17, sodium 6-amino-4-hydroxy-2-naphthalenesulfonate]
- toxicity for quiescent fibroblasts [1]: innocuous
- toxicity for quiescent fibroblasts ([1]; listed as sodium 4-hydroxy-6-amino-2-naphthalenesulfonate): not toxic
- aFGF-induced mitogenic activity inhibition (in words) (aFGF [2]; Balb/c 3T3 fibroblasts): slightly less than that of C-9
- aFGF-induced mitogenic activity inhibition (in words) (aFGF [2]; Balb/c 3T3 fibroblasts, listed as sodium 4-hydroxy-6-amino-2-naphthalenesulfonate): potent aFGF-induced mitogenic activity inhibitors
- aFGF-induced mitogenic inhibitory activity compared between compounds (stereochemical guidelines) (aFGF [2]): better aFGF-induced mitogenic activity inhibitors

- aFGF-induced mitogenic activity inhibition (in words) (aFGF [2]; Balb/c 3T3 fibroblasts, listed as 2-NMS): inhibits aFGF-induced mitogenic activity
Compound: O=S(=O)(O)c1ccc2ccccc2c1 [Compound C-8, 2-naphthalenesulfonic acid]
- toxicity for quiescent fibroblasts [1]: toxic
- aFGF-induced mitogenic activity inhibition (in words) (aFGF [2]; Balb/c 3T3 fibroblasts): inhibits aFGF-induced mitogenic activity at lower concentrations than compound C-1

Compound: CC(=O)Nc1ccc(S(=O)(=O)[O-])c2ccccc12.[Na+] [Compound C-4, sodium 4-acetylamino-1-naphthalenesulfonate]
- toxicity for quiescent fibroblasts [1]: certain toxic effect
- aFGF-induced mitogenic activity inhibition (in words) (aFGF [2]; Balb/c 3T3 fibroblasts): aFGF-induced mitogenic activity inhibitors

Compound: Nc1cccc2cc(S(=O)(=O)[O-])ccc12.[Na+] [Compound C-9, sodium 5-amino-2-naphthalenesulfonate]
- mitogenesis inductor / tumorigenic effect on quiescent fibroblasts in the absence of aFGF [1]: does not occur
- toxicity for quiescent fibroblasts [1]: innocuous
- toxicity for quiescent fibroblasts ([1]; listed as sodium 5-amino-2-naphthalenesulfonate): not toxic
- neovascularization inhibition (aFGF [5]; 0.008 mg/kg intraperitoneal, 7 days after implants): already assessable
- neovascularization inhibition (aFGF [5]; 0.08 mg/kg intraperitoneal, 7 days after implants): already assessable
- cellular infiltration in aFGF-soaked sponge implants (aFGF [5]; 8 mg/kg intraperitoneal, FIG. 2): disappears
- neovascularization inhibition (aFGF [5]; doses exceeding 0.8 mg/kg intraperitoneal): virtually complete
- aFGF-induced angiogenic activity inhibition (in words) (aFGF [5]; mouse, in vivo): aFGF-induced angiogenic activity inhibitors
- neovascularization inhibition compared with suramines and 1,3,6-NTS (aFGF [5]; mouse, in vivo): considerably more effective neovascularization inhibitor
- neovascularization inhibition with bFGF instead of aFGF (bFGF): Equivalent results
- toxic death or apparent alterations in the animals [6]: did not cause any toxic death or apparent alterations
- weight changes [6]: nor did it cause weight changes
- apoptosis index (glioma C6 cells; continuous infusion 0.2 mg/h, 14 days): very positive
- corneal neovascularization area (glioma C6 cells; in comparison with the untreated animals): very reduced
- apoptotic endothelial nuclei (microscopic observation) (glioma C6 cells; treated animals): presence of apoptotic endothelial nuclei
- broken blood vessels (microscopic observation) (glioma C6 cells; treated animals): presence of broken blood vessels
- number of apoptotic bodies (microscopic observation) (glioma C6 cells; treated animals): higher number
- number of glioma C6 cells (microscopic observation) (glioma C6 cells; treated animals): lower number
- tumor mass (C6 glioma cells; NMR imaging of coronal brain sections vs untreated rats): significantly decreased
- intratumor vascularization inhibition (factor) (C6 glioma cells; rat, in vivo): six
- aFGF-induced mitogenic activity inhibition (in words) (aFGF [2]; Balb/c 3T3 fibroblasts): potent aFGF-induced mitogenic activity inhibitors
- aFGF-induced mitogenic inhibitory activity compared between compounds (stereochemical guidelines) (aFGF [2]): better aFGF-induced mitogenic activity inhibitors
- IC50 rank among the tested compounds (aFGF [2]; aFGF-induced mitogenesis): second best IC50 value
- IC50 (aFGF [2]; aFGF-induced mitogenesis, Balb/c 3T3 fibroblasts, read-out: inhibitory activity IC50): 265 µM

Compound: O=S(=O)(O)c1cccc2c(S(=O)(=O)O)cccc12 [1,5-NDS, 1,5-naphthalenedisulfonic acid, reference compound]
- toxicity at concentrations at which aFGF mitogenic activity is inhibited (literature) [3]: clear toxicity; also recorded: toxic
- aFGF-induced mitogenic activity inhibition (literature) (aFGF [4]): better aFGF mitogenic activity inhibitors than NTS; also recorded: aFGF-induced mitogenic activity inhibitors

- aFGF-induced mitogenic activity inhibition (in words) (aFGF [2]; Balb/c 3T3 fibroblasts): slightly less than that of C-9
Compound: CC(=O)Nc1cccc2cc(S(=O)(=O)[O-])ccc12.[Na+] [Compound C-10, sodium 5-acetylamino-2-naphthalenesulfonate]
- toxicity for quiescent fibroblasts [1]: innocuous
- toxicity for quiescent fibroblasts ([1]; listed as sodium 5-acetylamino-2-naphthalenesulfonate): not toxic
- aFGF-induced mitogenic activity inhibition (in words) (aFGF [2]; Balb/c 3T3 fibroblasts, listed as sodium 5-acetylamino-2-naphthalenesulfonate): potent aFGF-induced mitogenic activity inhibitors
- aFGF-induced mitogenic inhibitory activity compared between compounds (stereochemical guidelines) (aFGF [2]): does not substantially alter the inhibitory activity

Compound: Cc1ccc2ccccc2c1S(=O)(=O)[O-].[Na+] [Compound C-2, sodium 2-methyl-1-naphthalenesulfonate]
- toxicity for quiescent fibroblasts [1]: certain toxic effect
- aFGF-induced mitogenic activity inhibition (in words) (aFGF [2]; Balb/c 3T3 fibroblasts): aFGF-induced mitogenic activity inhibitors

Compound: CC(=O)Nc1cccc2ccc(S(=O)(=O)[O-])cc12.[Na+] [Compound C-15, sodium 8-acetylamino-2-naphthalenesulfonate]
- toxicity for quiescent fibroblasts [1]: innocuous
- aFGF-induced mitogenic activity inhibition (in words) (aFGF [2]; Balb/c 3T3 fibroblasts): aFGF-induced mitogenic activity inhibitors

Compound: O=S(=O)([O-])c1ccc2ncccc2c1.[Na+] [Compound C-23, sodium 6-quinolinesulfonate]
- toxicity for quiescent fibroblasts [1]: toxic effect
- aFGF-induced mitogenic activity inhibition (in words) (aFGF [2]; Balb/c 3T3 fibroblasts): potent aFGF-induced mitogenic activity inhibitor

Reference: patent publication US20090076140A1, “PHARMACEUTICAL COMPOSITIONS CONTAINING SULPHONIC ACID DERIVATIVES” (ITALFARMACO, S. A., priority 2003, published 2009)
